According to ChEMBL document CHEMBL1201862, “PubChem BioAssay data set” (2004):
Active and inactive are the calls of the source.

Assays:
Beta-galactosidase = Beta-galactosidase (Escherichia coli, UniProt Q8VNN2); experiment: Dose response counterscreen for EBI2 assay utilizing the enzyme, b-galactosidase.; assay type: functional
Fatty acid synthase [1] = target: T1, Fatty acid synthase (Homo sapiens, UniProt P49327); experiment: FAS thioesterase domain inhibitors, dose response, biochemical, endpoint fluorescence intensity, uHTS hits (AID 624327); assay type: functional;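 note: fluorescence from hydrolysis of an O-methyl fluorescein acyl ester substrate by the enzyme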
T1 sequence (P49327 whole entry, the tested form may be a part): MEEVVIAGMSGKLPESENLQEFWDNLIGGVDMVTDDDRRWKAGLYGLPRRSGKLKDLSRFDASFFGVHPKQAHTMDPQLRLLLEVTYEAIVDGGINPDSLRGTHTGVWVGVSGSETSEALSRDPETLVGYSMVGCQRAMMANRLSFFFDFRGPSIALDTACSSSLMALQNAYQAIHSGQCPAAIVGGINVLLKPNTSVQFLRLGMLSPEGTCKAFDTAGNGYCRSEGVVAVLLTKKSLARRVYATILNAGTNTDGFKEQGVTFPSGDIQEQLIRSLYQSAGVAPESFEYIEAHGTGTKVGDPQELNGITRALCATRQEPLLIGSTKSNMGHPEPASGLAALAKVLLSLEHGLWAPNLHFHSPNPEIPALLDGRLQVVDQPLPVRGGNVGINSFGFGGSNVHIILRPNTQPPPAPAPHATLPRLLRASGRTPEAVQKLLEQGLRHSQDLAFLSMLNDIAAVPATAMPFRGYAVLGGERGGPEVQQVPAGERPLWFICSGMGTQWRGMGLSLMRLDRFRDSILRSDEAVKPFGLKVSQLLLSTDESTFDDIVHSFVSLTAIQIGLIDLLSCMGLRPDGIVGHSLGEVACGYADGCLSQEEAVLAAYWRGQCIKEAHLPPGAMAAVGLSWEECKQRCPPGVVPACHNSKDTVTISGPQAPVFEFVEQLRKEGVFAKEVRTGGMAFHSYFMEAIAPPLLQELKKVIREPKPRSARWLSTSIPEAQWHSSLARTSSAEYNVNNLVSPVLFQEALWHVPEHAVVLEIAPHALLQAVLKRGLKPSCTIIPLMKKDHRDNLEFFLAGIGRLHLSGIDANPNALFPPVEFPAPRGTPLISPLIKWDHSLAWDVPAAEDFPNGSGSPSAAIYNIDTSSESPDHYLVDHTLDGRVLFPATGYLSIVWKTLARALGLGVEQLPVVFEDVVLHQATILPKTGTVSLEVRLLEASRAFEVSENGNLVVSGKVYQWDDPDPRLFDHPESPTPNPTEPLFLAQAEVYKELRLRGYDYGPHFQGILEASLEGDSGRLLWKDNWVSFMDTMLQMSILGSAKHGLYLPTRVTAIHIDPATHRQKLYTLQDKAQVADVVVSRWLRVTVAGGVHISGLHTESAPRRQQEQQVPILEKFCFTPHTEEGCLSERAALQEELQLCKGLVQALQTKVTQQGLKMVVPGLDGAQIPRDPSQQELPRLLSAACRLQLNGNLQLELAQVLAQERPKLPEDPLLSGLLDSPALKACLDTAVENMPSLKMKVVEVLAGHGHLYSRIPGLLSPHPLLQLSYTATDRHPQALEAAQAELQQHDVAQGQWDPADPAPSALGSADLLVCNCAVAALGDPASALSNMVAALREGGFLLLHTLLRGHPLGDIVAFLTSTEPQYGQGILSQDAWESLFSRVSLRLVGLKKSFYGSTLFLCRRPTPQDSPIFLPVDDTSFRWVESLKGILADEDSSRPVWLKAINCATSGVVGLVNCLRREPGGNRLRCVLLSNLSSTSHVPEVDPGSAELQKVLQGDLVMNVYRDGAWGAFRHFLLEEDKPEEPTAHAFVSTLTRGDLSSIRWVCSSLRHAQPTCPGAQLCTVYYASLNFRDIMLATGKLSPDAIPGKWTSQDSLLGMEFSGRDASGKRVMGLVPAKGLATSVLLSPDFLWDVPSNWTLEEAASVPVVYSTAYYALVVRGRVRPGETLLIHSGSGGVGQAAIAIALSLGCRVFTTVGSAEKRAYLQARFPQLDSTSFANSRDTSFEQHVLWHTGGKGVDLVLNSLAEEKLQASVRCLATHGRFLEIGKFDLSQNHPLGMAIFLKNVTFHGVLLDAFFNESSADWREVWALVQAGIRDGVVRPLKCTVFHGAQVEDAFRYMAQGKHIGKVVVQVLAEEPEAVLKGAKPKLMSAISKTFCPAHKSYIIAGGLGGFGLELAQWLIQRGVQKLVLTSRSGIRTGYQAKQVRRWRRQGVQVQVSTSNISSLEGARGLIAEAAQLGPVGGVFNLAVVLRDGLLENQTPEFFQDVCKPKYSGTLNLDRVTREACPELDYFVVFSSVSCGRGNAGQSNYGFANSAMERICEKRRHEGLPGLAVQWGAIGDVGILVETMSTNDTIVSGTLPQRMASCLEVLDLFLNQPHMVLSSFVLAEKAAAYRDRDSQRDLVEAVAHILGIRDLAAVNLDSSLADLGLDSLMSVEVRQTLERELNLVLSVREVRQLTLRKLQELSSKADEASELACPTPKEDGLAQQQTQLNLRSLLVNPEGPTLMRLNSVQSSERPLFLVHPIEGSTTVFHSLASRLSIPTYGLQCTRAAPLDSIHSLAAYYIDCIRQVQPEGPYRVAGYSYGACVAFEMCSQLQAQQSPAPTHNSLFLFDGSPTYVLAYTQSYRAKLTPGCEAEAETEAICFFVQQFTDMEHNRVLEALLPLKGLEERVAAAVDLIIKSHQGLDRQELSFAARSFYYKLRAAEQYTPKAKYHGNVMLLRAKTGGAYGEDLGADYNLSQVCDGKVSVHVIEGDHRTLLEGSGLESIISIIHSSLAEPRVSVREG

[2] = target: Matrix metalloproteinase-14 (Homo sapiens, UniProt P50281); experiment: Dose Response confirmation of uHTS hits for a small molecule inhibitors of MT1-MMP activation in a fluorescence assay set 1.; assay type: functional
Nonstructural protein 1 = Nonstructural protein 1 (Influenza A virus, UniProt Q194T2); assay type: functional, Influenza A virus (A/California/07/2009(H1N1))
Fatty acid synthase [3] = target: T1, Fatty acid synthase; experiment: FAS thioesterase domain inhibitors, dose response, biochemical, kinetic fluorescence intensity (AID 624326); assay type: functional;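 note: rate of fluorescence rise from hydrolysis of a fluorogenic O-methyl fluorescein ester substrate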
[4] = HEK293T cytotoxicity, dose response, cytotoxicity control for miR-122 modulator project, cell-based, inhibitor set, cherry-pick, set 2 (AID 720697); assay type: functional
[5] = target: Peroxisome proliferator-activated receptor gamma/Nuclear receptor corepressor 2 (Homo sapiens, UniProt P37231+Q9Y618); experiment: Counterscreen for NR2E3 inverse agonists: TR-FRET-based biochemical high throughput dose response assay to identify inverse agonists of the interaction between peroxisome proliferator-activated receptor gamma (PPARg) and nuclear receptor co-repressor 2 (NCOR2).; assay type: functional
[6] = target: Photoreceptor-specific nuclear receptor (Homo sapiens, UniProt Q9Y5X4); experiment: NR2E3 inverse agonists, dose response, biochemical, TR-FRET (AID 463256); assay type: functional
Sequence of Photoreceptor-specific nuclear receptor (Q9Y5X4 whole entry): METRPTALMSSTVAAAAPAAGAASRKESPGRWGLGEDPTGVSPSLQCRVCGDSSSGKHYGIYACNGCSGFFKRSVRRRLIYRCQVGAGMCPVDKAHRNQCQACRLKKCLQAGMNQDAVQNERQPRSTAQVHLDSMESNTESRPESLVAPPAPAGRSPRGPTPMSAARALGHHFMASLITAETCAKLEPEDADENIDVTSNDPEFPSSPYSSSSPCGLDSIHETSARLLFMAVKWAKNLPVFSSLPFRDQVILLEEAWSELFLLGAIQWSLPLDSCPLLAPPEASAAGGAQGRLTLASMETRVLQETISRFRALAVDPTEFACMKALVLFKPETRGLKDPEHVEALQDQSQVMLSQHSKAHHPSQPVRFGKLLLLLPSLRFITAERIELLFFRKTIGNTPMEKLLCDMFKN

[7] = human group III sPLA2 inhibitors, dose response, biochemical, QFRET, IC50 (AID 743457);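 note: green fluorescence rise as the enzyme cleaves BODIPY PC-A2 in liposomes; potency for inhibition of the enzyme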
[8] = ARNT/TACC3 interaction disruptors, potency, confirmation, biochemical, AlphaScreen, cherry-picked samples (AID 651703); assay type: functional, Homo sapiens;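 note: His-tagged ARNT PAS-B domain paired with GST-TACC3 E629A dimer coactivator fragment; potency of inhibitors that break up the complex and lower AlphaScreen signal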
[9] = cytotoxicity toward NIH3T3 fibroblasts, dose response, counter-screen, cell-based, ATP luminescence, mouse fibroblasts (AID 2010); assay type: functional;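 note: cells exposed to compound for about 90 hours before reading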
[10] = target: Arf-GAP with SH3 domain, ANK repeat and PH domain-containing protein 1 (Homo sapiens, UniProt Q9ULH1); assay type: functional;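 note: biochemical fluorescence polarization dose–response screen measuring inhibition of ASAP1; ASAP1 GAP domain stimulating GTP hydrolysis by truncated human ARF1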
[11] = inhibitors of intracellular T. cruzi replication, confirmation, NIH3T3 host cells, beta-gal luminescence (AID 2044); assay type: functional, cell-based;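 note: intracellular parasites grown in NIH/3T3 mouse fibroblasts as host cells; luminescent beta-galactosidase reporter signal from transgenic T. cruzi replicating inside host cells; inhibitors lower the luminescence signal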
[12] = target: Hepatocyte nuclear factor 4-alpha (Homo sapiens, UniProt P41235); assay type: functional, cell-based;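 note: biochemical luminescence-based dose-response counterscreen measuring inhibition of HNF4 dimerization, run alongside a screen for blockers of ABHD5–perilipin-5 interaction; split luciferase complementation of HNF4 fusion proteins in cell lysate measuring dimerization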
Sequence of Hepatocyte nuclear factor 4-alpha (P41235 whole entry, the tested form may be a part): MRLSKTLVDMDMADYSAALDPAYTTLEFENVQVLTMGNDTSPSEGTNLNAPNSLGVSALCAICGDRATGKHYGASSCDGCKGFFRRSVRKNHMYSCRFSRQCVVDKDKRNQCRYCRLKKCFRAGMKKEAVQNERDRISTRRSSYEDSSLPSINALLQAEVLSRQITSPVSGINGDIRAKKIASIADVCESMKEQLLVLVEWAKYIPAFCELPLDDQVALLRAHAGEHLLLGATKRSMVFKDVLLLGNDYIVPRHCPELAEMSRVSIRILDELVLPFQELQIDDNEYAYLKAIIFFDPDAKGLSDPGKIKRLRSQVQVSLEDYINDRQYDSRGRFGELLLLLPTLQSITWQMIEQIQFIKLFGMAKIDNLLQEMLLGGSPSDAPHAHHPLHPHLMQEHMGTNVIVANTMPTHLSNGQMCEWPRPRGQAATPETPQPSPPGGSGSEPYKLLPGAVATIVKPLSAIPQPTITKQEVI

Beta-lactamase [13] = target: Beta-lactamase (Pseudomonas aeruginosa, UniProt Q79MP6);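 note: biochemical dose-response test of metallo-beta-lactamase enzyme inhibition, read out by epi-absorbance; purified recombinant IMP-1 metallo-beta-lactamase with nitrocefin as substrate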
[14] = target: UDP-galactopyranose mutase (Mycobacterium tuberculosis, UniProt P9WIQ1); experiment: Inhibitors of Mycobacterium tuberculosis UDP-galactopyranose mutase (UGM) enzyme Measured in Biochemical System Using Plate Reader - 2105-02_Inhibitor_Dose_CherryPick_Activity. [Related pubchem assays (depositor defined):AID504439]
Sequence of UDP-galactopyranose mutase (P9WIQ1 whole entry): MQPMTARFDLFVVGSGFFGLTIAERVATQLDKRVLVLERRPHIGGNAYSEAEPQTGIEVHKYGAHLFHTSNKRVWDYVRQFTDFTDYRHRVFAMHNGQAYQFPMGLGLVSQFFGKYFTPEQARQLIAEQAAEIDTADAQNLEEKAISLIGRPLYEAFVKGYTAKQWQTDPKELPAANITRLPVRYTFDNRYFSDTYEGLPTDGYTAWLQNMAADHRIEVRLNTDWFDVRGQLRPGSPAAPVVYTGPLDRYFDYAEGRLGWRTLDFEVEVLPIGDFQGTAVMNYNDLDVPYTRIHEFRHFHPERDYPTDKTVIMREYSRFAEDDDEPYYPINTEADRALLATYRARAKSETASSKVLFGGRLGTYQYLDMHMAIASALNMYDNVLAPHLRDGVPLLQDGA

Beta-lactamase [15] = target: Beta-lactamase (Salmonella choleraesuis (strain SC-B67), UniProt Q5J463)
Keap1/Nrf2 = Keap1/Nrf2 (Homo sapiens, UniProt Q14145); experiment: Keap1-Nrf2 protein-protein interaction inhibitors, dose response, biochemical, fluorescence polarization, cherry-picked samples (AID 588683)
ORF 73 = target: T2, ORF 73 (Human herpesvirus 8, UniProt O40947); experiment: inhibitors of C-LANA binding to LBS DNA, dose response, biochemical, fluorescence polarization, cherry-picked samples (AID 504725); parameters: species or system Human gammaherpesvirus 8;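 note: fluorescence polarization of a labeled DNA duplex reporting LANA DNA binding; potency is for inhibitors that block LANA binding to the DNA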
T2 sequence (O40947 whole entry): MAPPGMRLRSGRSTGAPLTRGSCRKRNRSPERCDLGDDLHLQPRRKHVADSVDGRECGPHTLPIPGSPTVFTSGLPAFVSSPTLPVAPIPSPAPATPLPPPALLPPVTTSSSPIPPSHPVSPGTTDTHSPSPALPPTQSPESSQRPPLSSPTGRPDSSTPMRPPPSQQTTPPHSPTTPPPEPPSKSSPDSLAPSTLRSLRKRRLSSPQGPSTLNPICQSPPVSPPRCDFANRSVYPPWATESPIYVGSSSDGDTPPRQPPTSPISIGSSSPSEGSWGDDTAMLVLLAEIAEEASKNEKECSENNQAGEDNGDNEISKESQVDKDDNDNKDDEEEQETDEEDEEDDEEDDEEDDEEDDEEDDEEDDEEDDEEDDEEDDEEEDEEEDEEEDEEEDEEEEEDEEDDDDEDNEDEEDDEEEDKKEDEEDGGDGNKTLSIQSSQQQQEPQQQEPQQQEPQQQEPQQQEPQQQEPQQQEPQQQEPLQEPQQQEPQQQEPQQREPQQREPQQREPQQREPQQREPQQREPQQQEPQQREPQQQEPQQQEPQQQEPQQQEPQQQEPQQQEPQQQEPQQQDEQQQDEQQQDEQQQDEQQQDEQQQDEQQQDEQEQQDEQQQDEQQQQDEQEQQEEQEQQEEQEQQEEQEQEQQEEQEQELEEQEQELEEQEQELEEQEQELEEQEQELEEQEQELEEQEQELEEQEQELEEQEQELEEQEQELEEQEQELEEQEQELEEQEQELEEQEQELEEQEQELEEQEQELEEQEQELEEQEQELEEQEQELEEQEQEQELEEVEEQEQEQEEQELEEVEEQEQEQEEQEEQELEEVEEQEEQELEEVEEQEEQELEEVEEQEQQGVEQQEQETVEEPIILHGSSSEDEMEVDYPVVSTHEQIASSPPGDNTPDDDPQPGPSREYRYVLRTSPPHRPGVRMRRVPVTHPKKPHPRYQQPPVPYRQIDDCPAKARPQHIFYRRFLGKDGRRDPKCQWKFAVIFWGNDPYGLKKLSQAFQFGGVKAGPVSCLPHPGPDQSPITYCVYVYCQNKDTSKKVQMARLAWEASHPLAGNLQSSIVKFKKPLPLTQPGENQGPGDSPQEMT

[16] = target: Disintegrin and metalloproteinase domain-containing protein 17 (Homo sapiens, UniProt P78536); experiment: ADAM17 protease inhibitors, dose response, counter-screen for ADAM10 exosite inhibitor project, biochemical, quenched FRET substrate (AID 743253)
[17] = ADAM10 inhibitors, peptide cleavage, dose response, biochemical, QFRET (AID 743254);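 note: ADAM10 enzyme with the DM2 quenched FRET peptide as substrate; EDANS fluorescence gain as the protease cuts the substrate; inhibitor potency against ADAM10 proteolytic activity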
[18] = microbe, parasite or virus in culture; assay type: functional; details: Mycobacterium tuberculosis
[19] = target: T3, Probable nicotinate-nucleotide adenylyltransferase (Staphylococcus aureus (strain N315), UniProt P65502); assay type: functional, Staphylococcus aureus subsp. aureus N315; details: read-out: IC50_Mean;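 for IC50 Mean: confirmatory dose-response retesting of NadD inhibitor hits first found in an ultra-high-throughput screen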
T3 sequence (P65502 whole entry): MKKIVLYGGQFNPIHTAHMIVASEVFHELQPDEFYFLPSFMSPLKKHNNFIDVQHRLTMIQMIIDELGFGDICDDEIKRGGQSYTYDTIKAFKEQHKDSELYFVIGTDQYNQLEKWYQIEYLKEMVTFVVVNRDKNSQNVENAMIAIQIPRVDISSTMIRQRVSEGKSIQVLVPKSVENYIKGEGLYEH

[20] = target: T3, Probable nicotinate-nucleotide adenylyltransferase; assay type: functional, Staphylococcus aureus subsp. aureus N315
[21] = target: NAD-dependent protein deacylase sirtuin-5, mitochondrial (Homo sapiens, UniProt Q9NXA8); experiment: SIRT5 desuccinylase inhibitors, dose response, biochemical, fluorescence imaging, cherry-pick, set 5 (AID 720591);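 note: desuccinylation of succinyl peptide AMC substrate read as fluorescence after trypsin release; potency of inhibitors that lower fluorescence and may act on trypsin instead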
[22] = target: T4, Sentrin-specific protease 1 (Homo sapiens, UniProt Q9P0U3); experiment: potency of human SENP1 inhibitors, dose response, biochemical, kinetic FRET (AID 651697); assay type: functional; details: read-out: IC50_Mean
T4 sequence (Q9P0U3 whole entry, the tested form may be a part): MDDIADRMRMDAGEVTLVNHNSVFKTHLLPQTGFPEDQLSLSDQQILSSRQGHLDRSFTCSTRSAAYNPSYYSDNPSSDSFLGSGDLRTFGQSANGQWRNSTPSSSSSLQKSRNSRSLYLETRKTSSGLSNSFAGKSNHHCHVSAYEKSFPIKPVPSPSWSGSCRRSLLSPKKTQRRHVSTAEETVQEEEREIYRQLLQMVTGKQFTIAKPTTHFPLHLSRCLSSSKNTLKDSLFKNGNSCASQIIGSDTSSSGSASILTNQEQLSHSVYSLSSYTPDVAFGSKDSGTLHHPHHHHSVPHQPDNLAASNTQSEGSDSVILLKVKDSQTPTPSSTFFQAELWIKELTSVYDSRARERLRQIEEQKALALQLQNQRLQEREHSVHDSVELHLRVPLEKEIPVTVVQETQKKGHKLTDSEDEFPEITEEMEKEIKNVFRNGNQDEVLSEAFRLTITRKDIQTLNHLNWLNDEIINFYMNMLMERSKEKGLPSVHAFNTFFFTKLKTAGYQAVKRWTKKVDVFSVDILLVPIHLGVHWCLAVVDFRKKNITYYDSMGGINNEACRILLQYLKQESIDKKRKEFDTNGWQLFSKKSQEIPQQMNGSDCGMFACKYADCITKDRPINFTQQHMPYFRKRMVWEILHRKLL

[23] = target: T4, Sentrin-specific protease 1; experiment: Dose response confirmation of small molecule inhibitors of the catalytic domain of the SUMO protease, SENP1 in a FRET assay.; assay type: functional; details: read-out: IC50_Mean
Vero = experiment: Vero cell toxicity, dose response, cytotoxicity control, plate reader, cherry-pick samples (AID 687020); assay type: functional, cell-based; details: Chlorocebus sabaeus
[24] = miR-122 activators in hepatoma reporter cells, dose response, cell-based, Huh7 psiCHECK-miR122, Renilla luciferase, cherry-picked (AID 651956); assay type: functional;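 note: huh7 hepatoma cells stably carrying a psiCHECK-2 miR-122 sensor plasmid; renilla luciferase signal reporting endogenous miR-122 activity after 48 h compound exposure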
HeLa = experiment: HeLa cell cytotoxicity, dose response, cytotoxicity control, ATP luminescence, cherry-pick samples (AID 687004); assay type: functional, cell-based; details: Homo sapiens
[25] = Counterscreen for activators of the function of SWI/SNF related, matrix associated, actin dependent regulator of chromatin, subfamily a, member 2 (SMARCA2, BRM): Luminescence-based cell-based high throughput dose response assay to identify non-selective compounds using the VP16 reporter assay.; assay type: functional
[26] = target: SWI/SNF-related matrix-associated actin-dependent regulator of chromatin subfamily A member 2 (Homo sapiens, UniProt P51531); experiment: Luminescence-based cell-based high throughput dose response assay to identify activators of the function of SWI/SNF related, matrix associated, actin dependent regulator of chromatin, subfamily a, member 2 (SMARCA2, BRM).; assay type: functional
[27] = NIH:OVCAR-3 ovarian cancer cell cytotoxicity, dose response, PAX8 inhibitor project, plate reader, dry powder samples (AID 743044); assay type: functional, cell-based
Paired box protein Pax-8 = Paired box protein Pax-8 (Homo sapiens, UniProt Q06710); experiment: inhibitors of PAX8-driven TPO luciferase reporter, dose response, RMG-I cells, cherry-pick (AID 687027); assay type: functional, cell-based;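 note: luciferase reporter driven by Pax8 target thyroperoxidase promoter measured by SteadyGlo luminescence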
[28] = non-specific cell cytotoxicity, dose response, cytotoxicity control for PAX8 inhibitor project, plate reader, dry powder samples (AID 743021); assay type: functional, cell-based
[29] = inhibitors of CMV-promoter luciferase reporter, dose response, counter-screen for Pax8 inhibitor project, cell-based, HEK293, luminescence, dry powder (AID 743020); assay type: functional
[30] = IGROV1 ovarian cancer cell cytotoxicity, dose response, PAX8 inhibitor project, plate reader, dry powder samples (AID 743043); assay type: functional, cell-based; details: IGROV-1
[31] = target: T5, Trace amine-associated receptor 1 (Homo sapiens, UniProt Q96RJ0); experiment: Fluorescence-based cell-based high throughput dose response assay to identify agonists of the human trace amine associated receptor 1 (TAAR1).; assay type: functional
T5 sequence (Q96RJ0 whole entry): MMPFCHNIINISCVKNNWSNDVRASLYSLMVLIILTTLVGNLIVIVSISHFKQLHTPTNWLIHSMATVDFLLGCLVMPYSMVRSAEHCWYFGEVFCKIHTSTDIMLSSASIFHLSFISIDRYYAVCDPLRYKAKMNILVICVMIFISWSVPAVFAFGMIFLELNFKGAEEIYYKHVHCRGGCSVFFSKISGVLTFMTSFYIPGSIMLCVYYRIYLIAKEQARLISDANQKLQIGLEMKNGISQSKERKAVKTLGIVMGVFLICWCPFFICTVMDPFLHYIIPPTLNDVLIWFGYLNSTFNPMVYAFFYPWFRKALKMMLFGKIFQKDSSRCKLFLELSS

[32] = target: T5, Trace amine-associated receptor 1; experiment: Counterscreen for agonists of the human trace amine associated receptor 1 (hTAAR1): Fluorescence-based cell-based high throughput dose response assay to identify hTAAR1 agonist that also desensitize TAAR1 receptor response.; assay type: functional
cells [33] = assay type: functional, cell-based
cells [34] = assay type: functional, cell-based; remark: listed apart in the source
A549 = experiment: A549 cell toxicity, dose response, cytotoxicity control, plate reader, cherry-pick samples (AID 687028); assay type: functional, cell-based; details: Homo sapiens
[35] = LMP1-driven NF-kB reporter inhibition, dose response, cell-based, luciferase reporter, luminescence, dry powder, set 2 (AID 624376); assay type: functional
[36] = inhibitors of LMP1-driven NF-kB reporter, dose response, cell-based, EBV LMP1, luciferase, dry powder, set 2 (AID 624361); assay type: functional
[37] = IRAP inhibitors, dose response, selectivity assay for ERAP1 modulator project, biochemical, Leu-AMC fluorescence, cherry-picked samples, set 2 (AID 743340)

COc1ccccc1N1CCN(C(=O)c2cc(=O)c3cc(C)ccc3o2)CC1
IC50 (Beta-galactosidase): > 80 µM (inactive)

CN1C(=O)/C(=C\c2cc(N=Nc3ccccc3)ccc2O)SC1=S
IC50 (Fatty acid synthase [1]): 33.7 µM (inactive) | IC50 [2]: > 80 µM (inactive) | IC50 (Nonstructural protein 1): 4.51 µM (active) | IC50 (Fatty acid synthase [3]): 24.4 µM (inactive)

CCNC(=O)CCC(=O)Nc1cc(Cl)ccc1C
AC50 [4]: 9 µM (active)

CCn1c(S)nnc1-c1csc2c1CCCC2
IC50 [5]: > 39.8 µM (not active) | IC50 [6]: 25.2 µM (not active) | IC50 [7]: > 122 µM (inactive)

O=C1c2cccnc2C(=O)N1Cc1ccc(S(=O)(=O)NCc2ccco2)s1
AC50 [8]: 98.4 µM (active)

CCc1cccc2c(C(=O)CN3C(=O)NC(C)(c4cccc5ccccc45)C3=O)c[nH]c12 (stereo not given)
EC50 [9]: > 30 µM (not active) | IC50 [10]: 165 µM (inactive) | EC50 [11]: 1.75 µM (active)

COc1cc(/C=C/C(=O)c2ccc(Cl)s2)cc(OC)c1O
IC50 [12]: 6.66 µM (active)

Cc1cccc(N2C(=O)c3cccc4c(N)ccc(c34)C2=O)c1
IC50 (Beta-lactamase [13]): 21.4 µM (inactive) | AC50 [14]: 1.79 µM (active) | IC50 (Beta-lactamase [15]): 10.1 µM (inactive) | AC50 (Keap1/Nrf2): 1.82 µM (active) | AC50 (ORF 73): 5.93 µM (active)

Cc1ccc(C)c(S(=O)(=O)N2CCC(c3nc(O)c4nnn(Cc5ccc6c(c5)OCCO6)c4n3)CC2)c1
IC50 [16]: > 69.5 µM (inactive) | IC50 [17]: > 69.5 µM (inactive) | CC50 [18]: > 40 µM (active)

CCOC(=O)c1ccccc1NC(=O)c1ccc2c(SCC(=O)O)c3c(nc2c1)CCCC3
IC50 [19]: 25 µM (active) | IC50 [20]: 5.7 µM (active) | AC50 [21]: > 30 µM (inactive)

O=C1CC[C@@H]2C[C@@]3(C[C@@H]4CCN1[C@H]24)Nc1cc([N+](=O)[O-])ccc1N=C3NCc1ccccc1
IC50 [22]: 18.3 µM (active) | IC50 [23]: 9.31 µM (active)

CN(C)C1(CNC(=O)C2CCN(S(=O)(=O)c3ccccc3C(F)(F)F)CC2)CCCCC1
AC50 (Vero): 36.2 µM (active)

CN1C(=O)c2cc(NC(=O)c3cccs3)ccc2OC[C@H]2O[C@H](CC(=O)NCCN3CCCCC3)CC[C@@H]21
AC50 [24]: 43.3 µM (active)

CCC(=O)N(C)C[C@H]1Oc2cc(-c3ccccc3)ccc2S(=O)(=O)N([C@H](C)CO)C[C@H]1C
AC50 (HeLa): 4.07 µM (active)

O=C(C=Cc1ccc(OCc2ccccc2)cc1)c1c(F)cccc1F
EC50 [25]: > 91.2 µM (inactive) | EC50 [26]: > 91.2 µM (inactive)

C[C@@H]1CCCCO[C@@H](CN(C)S(=O)(=O)c2ccccc2)[C@H](C)CN([C@H](C)CO)C(=O)c2cc(NC(=O)Nc3ccc(C(F)(F)F)cc3)ccc2O1
AC50 [27]: 20.2 µM (active) | AC50 (Paired box protein Pax-8): 3.44 µM (active) | AC50 [28]: 54.7 µM (active) | AC50 [29]: 28.4 µM (active) | AC50 [30]: 57.1 µM (active)

CC(C)[C@H](NC(=O)c1ccc(Cl)cc1Cl)C(=O)N1CCC[C@H]1C(=O)NCCc1ccccc1Cl
EC50 [31]: 1.19 µM (active) | IC50 [32]: 3.47 µM (active) | EC50 (cells [33]): > 29.9 µM (inactive) | IC50 (cells [34]): > 29.9 µM (inactive)

CCOC(=O)[C@]12CCC=C1N(Cc1ccccc1)C(=O)[C@H](CC(=O)N1CCCC1)C2
AC50 (A549): 25.3 µM (active)

COc1ccc(CNC(=O)c2cc3c(c(-c4cccc(-c5ccc(C#N)cc5)c4)n2)[C@@H](CCO)N([S@+]([O-])C(C)(C)C)C3)cc1
AbsAC35 [35]: 56.25 µM | AbsAC35 [36]: 108.86 µM

CCCN(C)C[C@@H]1OCCCC[C@H](C)Oc2ccc(NC(=O)Nc3ccc(F)cc3)cc2C(=O)N([C@H](C)CO)C[C@@H]1C
AC50 [37]: 13.1 µM (active)
